Our source for the CLint, inhibition and Ki values is ChEMBL document CHEMBL4007421, “Discovery and Preclinical Characterization of 3-((4-(4-Chlorophenyl)-7-fluoroquinoline-3-yl)sulfonyl)benzonitrile, a Novel Non-acetylenic Metabotropic Glutamate Receptor 5 (mGluR5) Negative Allosteric Modulator for Psychiatric Indications” (J Med Chem, 2017).

SMILES strings stand for the structures.

The test system of data set [1] is Liver. In words: Intrinsic clearance in human liver microsomes at 2.5 uM assessed per gram of liver. The class given is ADME, microsome. (In general: Liver microsomes are vesicles of endoplasmic reticulum, rich in cytochrome P450 enzymes.)
The test system of data set [2] is Liver. Briefly: Intrinsic clearance in rat liver microsomes at 2.5 uM assessed per gram of liver. The format is ADME, microsome.
Data set [3] addresses Metabotropic glutamate receptor 5 (Rattus norvegicus) (UniProt P31424). Briefly: Displacement of [3H]M-MPEP from rat mGluR5 expressed in rat cerebrocortical membrane at 1 uM after 60 mins relative to control. The class given is cell membranes. A general note: Displacement assays read how much labelled ligand stays bound in the presence of the test substance.
For data set [4], the target named is Metabotropic glutamate receptor 5 (Rattus norvegicus, UniProt P31424). In words: Displacement of [3H]M-MPEP from mGluR5 in Sprague-Dawley rat cerebrocortical membranes after 60 mins.
Chain of Metabotropic glutamate receptor 5 (P31424 whole entry): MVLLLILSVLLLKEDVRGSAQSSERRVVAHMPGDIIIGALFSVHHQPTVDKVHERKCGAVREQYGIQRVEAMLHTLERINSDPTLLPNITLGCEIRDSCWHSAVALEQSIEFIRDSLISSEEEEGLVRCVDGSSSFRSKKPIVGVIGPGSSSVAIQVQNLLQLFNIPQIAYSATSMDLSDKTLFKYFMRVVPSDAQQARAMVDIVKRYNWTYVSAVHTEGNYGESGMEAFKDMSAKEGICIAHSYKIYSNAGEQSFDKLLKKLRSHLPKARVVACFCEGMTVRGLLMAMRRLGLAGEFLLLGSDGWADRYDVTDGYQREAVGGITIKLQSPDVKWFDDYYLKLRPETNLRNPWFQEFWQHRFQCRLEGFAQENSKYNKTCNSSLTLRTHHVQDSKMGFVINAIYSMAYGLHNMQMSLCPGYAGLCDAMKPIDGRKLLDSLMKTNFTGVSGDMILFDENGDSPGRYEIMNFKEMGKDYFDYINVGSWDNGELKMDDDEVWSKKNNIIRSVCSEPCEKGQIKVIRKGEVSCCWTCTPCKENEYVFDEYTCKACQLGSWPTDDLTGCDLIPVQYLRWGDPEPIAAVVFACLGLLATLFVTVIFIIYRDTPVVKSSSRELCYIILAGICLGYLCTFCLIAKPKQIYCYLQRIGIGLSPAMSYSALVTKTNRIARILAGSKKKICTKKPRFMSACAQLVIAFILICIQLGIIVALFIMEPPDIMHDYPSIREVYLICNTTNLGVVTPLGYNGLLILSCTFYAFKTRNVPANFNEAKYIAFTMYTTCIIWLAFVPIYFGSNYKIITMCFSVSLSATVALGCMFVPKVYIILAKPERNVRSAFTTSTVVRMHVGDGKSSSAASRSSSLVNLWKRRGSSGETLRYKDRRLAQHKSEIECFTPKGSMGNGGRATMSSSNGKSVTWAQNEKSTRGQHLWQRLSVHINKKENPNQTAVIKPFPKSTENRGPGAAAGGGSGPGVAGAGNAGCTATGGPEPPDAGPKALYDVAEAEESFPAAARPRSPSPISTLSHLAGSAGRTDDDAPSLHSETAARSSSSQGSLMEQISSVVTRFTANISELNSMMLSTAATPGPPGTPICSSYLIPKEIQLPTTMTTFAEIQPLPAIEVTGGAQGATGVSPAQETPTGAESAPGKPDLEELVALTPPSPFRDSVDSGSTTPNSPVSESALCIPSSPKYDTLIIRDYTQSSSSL

Chain of Metabotropic glutamate receptor 5 (Rattus norvegicus) (P31424 21-1203 limits assumed): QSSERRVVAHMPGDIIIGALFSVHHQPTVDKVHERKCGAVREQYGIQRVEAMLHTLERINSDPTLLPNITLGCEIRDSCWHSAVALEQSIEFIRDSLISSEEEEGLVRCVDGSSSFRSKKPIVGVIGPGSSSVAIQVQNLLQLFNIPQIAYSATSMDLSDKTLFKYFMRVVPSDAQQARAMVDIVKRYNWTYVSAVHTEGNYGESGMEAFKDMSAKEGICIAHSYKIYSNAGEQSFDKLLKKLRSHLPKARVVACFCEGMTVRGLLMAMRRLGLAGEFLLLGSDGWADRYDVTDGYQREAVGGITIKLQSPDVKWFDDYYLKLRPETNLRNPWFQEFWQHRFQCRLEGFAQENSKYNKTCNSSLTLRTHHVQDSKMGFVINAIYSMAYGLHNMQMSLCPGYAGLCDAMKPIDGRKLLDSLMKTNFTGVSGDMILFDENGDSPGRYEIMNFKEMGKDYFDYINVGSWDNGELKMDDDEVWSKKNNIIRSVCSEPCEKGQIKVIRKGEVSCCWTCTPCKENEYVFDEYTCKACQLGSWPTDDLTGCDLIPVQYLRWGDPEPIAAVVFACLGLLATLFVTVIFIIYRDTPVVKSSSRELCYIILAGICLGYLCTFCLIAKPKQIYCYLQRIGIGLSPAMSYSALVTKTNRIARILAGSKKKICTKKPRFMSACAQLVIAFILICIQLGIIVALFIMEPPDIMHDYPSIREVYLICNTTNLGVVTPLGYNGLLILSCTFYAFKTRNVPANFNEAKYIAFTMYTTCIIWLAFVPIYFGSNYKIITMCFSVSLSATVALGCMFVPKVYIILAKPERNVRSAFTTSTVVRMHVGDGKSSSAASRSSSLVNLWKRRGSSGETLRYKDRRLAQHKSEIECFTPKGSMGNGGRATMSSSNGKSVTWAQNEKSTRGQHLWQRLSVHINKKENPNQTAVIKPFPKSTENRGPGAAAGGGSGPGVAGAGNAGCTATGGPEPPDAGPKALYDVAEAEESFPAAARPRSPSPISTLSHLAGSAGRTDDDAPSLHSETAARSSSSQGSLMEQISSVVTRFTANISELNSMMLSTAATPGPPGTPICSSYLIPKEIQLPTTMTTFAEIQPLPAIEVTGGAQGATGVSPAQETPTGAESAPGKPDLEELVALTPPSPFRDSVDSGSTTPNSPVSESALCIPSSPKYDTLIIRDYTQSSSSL

In the case of `Cc1ccc(S(=O)(=O)c2cnc3ccccc3c2N2CCOCC2)cc1C`, the CLint in the data set with Liver [1] came out at 3.37 mL/min/g; in the data set with Liver [2], 18 mL/min/g.

What is called inhibition is the share of the control response that was lost under treatment. Low values mean little suppression, high ones strong suppression. The Ki is a dissociation constant, usually derived from enzyme kinetics or from competition with a known ligand. Consider `O=S(=O)(c1ccc(F)cc1)c1cnc2c(F)cccc2c1-c1ccc(Cl)cc1`, for which, in data set [3], the inhibition was found to be 91.5%. This molecule also had a Ki in data set [4] of 16 nM. In addition, the CLint in the data set on Liver [1] came to 0.28 mL/min/g; in the data set with Liver [2], 0.06 mL/min/g.

Molecule `O=S(=O)(c1ccc(F)cc1)c1cnc2cc(Cl)ccc2c1-c1ccc(Cl)cc1` came in with an inhibition in data set [3] of 92.8%. This molecule also returned a Ki in data set [4] of 110 nM. The figures for the CLint with Liver [1] and in the data set with Liver [2] were 0.21 mL/min/g and 0.01 mL/min/g, respectively.

`O=S(=O)(c1ccc(F)cc1)c1cnc2c(F)cc(Cl)cc2c1-c1ccc(Cl)cc1` yielded an inhibition in data set [3] of 19%. In addition, the CLint was 0.01 mL/min/g with Liver [1] and 0.09 mL/min/g in the data set with Liver [2].

Turning to `Cc1ccc(S(=O)(=O)c2cnc3ccccc3c2-c2ccc(Cl)cc2)cc1`, the CLint was determined as 2.12 mL/min/g in the data set on Liver [1] and 17.5 mL/min/g in the data set on Liver [2].

`O=S(=O)(c1ccc(F)cc1)c1cnc2cc(F)ccc2c1-c1ccc(Cl)cc1`: the inhibition in data set [3] was 91.6%. In data set [4], the affinity corresponds to a Ki of 38.6 nM. Further, the figures for the CLint with Liver [1] and with Liver [2] were 1.23 to 1.25 mL/min/g and 0.89 mL/min/g, respectively.

On to `O=S(=O)(c1ccc(F)cc1)c1cnc2ccc(Cl)cc2c1-c1ccc(Cl)cc1`, for which the inhibition in data set [3] came out at 58.3%. The figures for the CLint with Liver [1] and in the data set on Liver [2] were 0.01 mL/min/g and 0.2 mL/min/g, respectively.

In data set [3], `O=S(=O)(c1ccc(F)cc1)c1cnc2cc(Cl)c(F)cc2c1-c1ccc(Cl)cc1` showed an inhibition of 48%. Besides, the CLint in the data set with Liver [1] amounted to 0.01 mL/min/g; in the data set on Liver [2], 0.57 mL/min/g.

Molecule `O=S(=O)(c1ccc(F)cc1)c1cnc2c(F)c(Cl)ccc2c1-c1ccc(Cl)cc1` returned an inhibition in data set [3] of 83.6%. Besides, the Ki in data set [4] came out at 71.2 nM. Besides, the CLint in the data set on Liver [1] and in the data set with Liver [2] was 0.01 mL/min/g each time.

In data set [3], `N#Cc1ccc2ncc(S(=O)(=O)c3ccc(F)cc3)c(-c3ccc(Cl)cc3)c2c1` showed an inhibition of 39.7%. Further, the CLint with Liver [1] was found to be 0.01 mL/min/g; with Liver [2], 0.04 mL/min/g.

In turn, `O=S(=O)(c1ccc(F)cc1)c1cnc2cc(F)c(Cl)cc2c1-c1ccc(Cl)cc1` had an inhibition in data set [3] of 43.7%. Also, the CLint is 0.01 mL/min/g with Liver [1] and 0.34 mL/min/g with Liver [2].

In data set [3], `N#Cc1ccc2c(-c3ccc(Cl)cc3)c(S(=O)(=O)c3ccc(F)cc3)cnc2c1` registered an inhibition of 8.7%. Besides, the CLint in the data set on Liver [1] and with Liver [2] was 0.01 mL/min/g throughout.

In the data set on Liver [1], `COc1ccc(S(=O)(=O)c2cnc3c(F)cccc3c2-c2cccc(Cl)c2)cc1` displayed a CLint of 2.75 mL/min/g.

In the case of `COc1ccc(S(=O)(=O)c2cnc3cc(F)ccc3c2-c2cccc(Cl)c2)cc1Cl`, the CLint in the data set with Liver [1] turned out to be 1.19 mL/min/g.

In the data set on Liver [1], `COc1ccc(S(=O)(=O)c2cnc3cc(F)ccc3c2-c2cccc(F)c2)cc1Cl` came in with a CLint of 2.08 mL/min/g.

Consider `COc1ccc(S(=O)(=O)c2cnc3cc(F)ccc3c2-c2ccc(F)cc2)cc1Cl`, for which the CLint with Liver [1] was determined as 1.29 mL/min/g.

As for `O=S(=O)(c1cccc(F)c1)c1cnc2c(F)cccc2c1-c1cccc(F)c1`, in the data set on Liver [1], the CLint worked out at 1.14 mL/min/g.

Molecule `COc1cccc(-c2c(S(=O)(=O)c3ccc(F)cc3)cnc3c(F)cccc23)c1` registered a CLint in the data set on Liver [1] of 2.23 mL/min/g.

On to `N#Cc1cccc(S(=O)(=O)c2cnc3cc(F)ccc3c2-c2ccccc2F)c1`, for which the CLint in the data set with Liver [1] is 1.39 mL/min/g.

For `O=S(=O)(c1ccc(F)cc1)c1cnc2ccc(F)cc2c1-c1ccc(Cl)cc1`, the inhibition in data set [3] came to 76.3%. The Ki in data set [4] came out at 180 nM. The values for the CLint in the data set on Liver [1] and in the data set on Liver [2] were 0.12 mL/min/g and 0.4 mL/min/g, respectively.

With `COc1ccc(-c2c(S(=O)(=O)c3ccc(F)c(F)c3)cnc3cc(F)ccc23)cc1`, the CLint in the data set on Liver [1] came to 1.1 mL/min/g.
